Experimental data taken from patent US20220170930A1, “METHOD FOR SCREENING COMPOUND FOR TREATING OR PREVENTING POLYQ-RELATED NEURODEGENERATIVE DISEASES” (FUDAN UNIVERSITY, priority 2019, published 2022).

Tests used:
[1] = target: T1, HTTexon1-Q72-MBP (Homo sapiens, UniProt P42858, INS38QQQQQQQQQQQQQQQQQQQQQQQQQQQQQQQQQQQQQQQQQQQQQQQQQQQ); test: OI-RD affinity screening and affinity reaction parameters with HTTexon1-Q72; type: binding
T1 construct: made in house; host or cells: mammalian expression vector pTT5SH8Q2
Method: Each compound was printed in duplicate on the microarray. The compound not fixed on the surface of the chip was washed away. The chip was sealed and cleaned. 01-RD microscope was applied to scan the images. […] The chips are cleaned and scanned.
(§1) The difference images of the above steps (1), (2), (3) (the image after incubation minus the image before incubation) was analyzed respectively.
(§2) Each compound was printed in triplicates on the microarray. 01-RD was used to measure the affinity reaction parameters of compounds with HTTexon1-Q72 and HTTexon1-Q25.

[2] = target: T2, HTTexon1-Q25-MBP (Homo sapiens, UniProt P42858, DUP35-38); test: OI-RD affinity with HTTexon1-Q25; type: binding
T2 construct: made in house; host or cells: mammalian expression vector pTT5SH8Q2
Method: OI-RD images before and after incubation with the target protein was obtained following the method in (1).
as §1, §2

[3] = target: T3, LC3B (Homo sapiens, UniProt Q9GZQ8); test: OI-RD affinity with LC3B; type: binding
T3 construct: His8 (N, cleaved yes); GST (from pGEX-6P1) (N, cleaved yes); made in house; host or cells: E. coli BL21(DE3)pLsyS
Method: 01-RD images before and after incubation with the target protein was obtained following the method in (1).
as §1
(§3) Each compound was printed in triplicates on the microarray. 01-RD was used to measure the affinity reaction parameters of the compound with LC3B, full-length mHTT (flHTT-Q73) and full-length HTT-Q23 (flHTT-Q23).

[4] = target: T4, full-length mHTT (flHTT-Q73) (Homo sapiens, UniProt P42858, INS38QQQQQQQQQQQQQQQQQQQQQQQQQQQQQQQQQQQQQQQQQQQQQQQQQQQQ); test: OI-RD affinity reaction parameters with flHTT-Q73; type: binding
T4 construct: LC3B, full-length mHTT (flHTT-Q73) and full-length HTT-Q23 (flHTT-Q23); protein A (N, cleaved yes); made in house; host or cells: human embryonic kidney E293 cells
Text: as §3

[5] = target: T5, flHTT-Q73 (Homo sapiens, UniProt P42858, INS38QQQQQQQQQQQQQQQQQQQQQQQQQQQQQQQQQQQQQQQQQQQQQQQQQQQQ); test: MST affinity with flHTT-Q73; type: binding
T5 construct: LC3B, full-length mHTT (flHTT-Q73) and full-length HTT-Q23 (flHTT-Q23); protein A (N, cleaved yes); made in house; host or cells: human embryonic kidney E293 cells

[6] = target: T3, LC3B; test: MST affinity with LC3B; type: binding
[7] = tested on: mHTT; test: Western-blot mHTT level in primary cultured cortical neurons; type: cell-based, mouse; details: 2 days
Method: (§4) Primary cultured cortical neurons: The brains of Hdh^Q140/Q7 and Hdh^Q7/Q7 newborn mice (P0) were dissected, digested, dissociated, and cultured.
(§5) (1) The primary cultured Hdh^Q140/Q7 and Hdh^Q7/Q7 mouse cortical neuron cells were treated with the compound for 2 days.

[8] = target: T6, wtHTT (Mus musculus, UniProt P42859); test: Western-blot wtHTT level in primary cultured cortical neurons; type: cell-based; details: Hdh^Q7/Q7 cortical neurons, 2 days
T6 construct: endogenous in cells; host or cells: primary cortical neurons of newborn Hdh Q140/Q7 and Hdh Q7/Q7 mice
Method: as §4, §5

[9] = target: T7, mHTT (Homo sapiens, UniProt P42858, INS38QQQQQQQQQQQQQQQQQQQQQQQQQQ); test: HTRF mHTT level in HD patient iPSC-derived neurons; type: cell-based; details: iPSC-derived neurons (Q47)
T7 construct: endogenous in cells; host or cells: HD patient iPSC-derived neurons (Q47)

[10] = target: T8, mutant ATXN3 protein (ATXN3-Q74) (Homo sapiens, UniProt P54252, G306R/INS305QQQQQQQQQQQQQQQQQQQQQQQQQQQQQQQQQQQQQQQQQQQQQQQQQQQQQQQQQQQQQQQQ/V212M); test: Western-blot mutant ATXN3 level in SCA3 patient fibroblasts; type: cell-based; details: 100 nM (compound 4: 50 nM), 2 days
T8 construct: endogenous in cells; host or cells: SCA3 patient fibroblasts (Q74)
Method: (§6) Then the levels of mutant ATXN3 protein (ATXN3-Q74, SEQ ID NO: 2) and wild-type ATXN3 protein (ATXN3-Q27, SEQ ID NO: 7) were determined by Western-blots (FIG. 26). […] Therefore, the compound of the present invention can be used to treat SCA3.

[11] = target: T9, wild-type ATXN3 protein (ATXN3-Q27) (Homo sapiens, UniProt P54252, G306R/INS305QQQQQQQQQQQQQQQQQ/V212M); test: Western-blot wild-type ATXN3 level in fibroblasts; type: cell-based; details: 100 nM (compound 4: 50 nM), 2 days
T9 construct: endogenous in cells; host or cells: wild-type fibroblasts (Q27) and/or the normal allele in SCA3 patient fibroblasts
Method: as §6

[12] = target: T10, His-ATXN1-Q92 (Homo sapiens, UniProt P54253, INS208QQQQQQQQQQQQQQQQQQQQQQQQQQQQQQQQQQQQQQQQQQQQQQQQQQQQQQQQQQQQQQQQQQQQQQQQQQQQQQQQ); test: OI-RD affinity screening with His-ATXN1-Q92; type: binding; details: OI-RD difference images
T10 construct: made in house; host or cells: HEK293T cells (ATCC, CRL-3216)
Method: (1) PolyQ-ATXN1 cDNA (where polyQ is Q92) was synthesized de novo and subcloned into pcDNA vector. It transfected into HEK293T cells (ATCC, CRL-3216) to obtain cells expressing His-ATXN1-Q92 (SEQ ID NO: 3 with a His tag at the N-terminal).
(2) The His-ATXN1-Q92 expressed in (1) was purified to obtain ATXN1 with abnormally expanded polyQ.
To identify compound(s) that can bind to ATXN1 with abnormally expanded polyQ, screening was conducted using a method similar to step (1) of 1.1, except for that the target protein HTTexon1-Q72-MBP in step (1) of 1.1 was replaced with His-ATXN1-Q92.

[13] = target: T11, mutant ATXN1 protein (His-ATXN1-Q92) (Homo sapiens, UniProt P54253, INS208QQQQQQQQQQQQQQQQQQQQQQQQQQQQQQQQQQQQQQQQQQQQQQQQQQQQQQQQQQQQQQQQQQQQQQQQQQQQQQQQ); test: HTRF mutant ATXN1 level in His-ATXN1-Q92-expressing cells; type: cell-based; details: 100 nM, 2 days, anti-His-Tb/MW1-D2
T11 construct: expressed in transfected cells; host or cells: HEK293T cells (ATCC, CRL-3216)

[14] = tested on: mHTT; test: Intracerebroventricular injection, mHTT and wtHTT in cortices of HD mice; type: in vivo, mouse; details: mouse, in vivo
Method: Experimental animals: Hdh^Q140/Q7 mice (3 months old), 4 in each group.
Each test includes three repetitions for each sample, and the mean values was calculated (FIG. 16).

[15] = tested on: SQSTM1/p62; test: SQSTM1/p62 level in mouse cortices after ip injection; type: in vivo; details: HD mice
Method: Using a method similar to 6.2, Hdh^Q140/Q7 mice were administered with injections. A method similar to 7.1 was used to detect the effects of ip-injection of compounds on other known autophagy selective substrate proteins (SQSTM1/p62) in the cortical tissue of Hdh^Q140/Q7 mice.

[16] = tested on: Q25-GFP; test: OI-RD affinity screening with Q25-GFP; type: binding; details: OI-RD difference images
Text: (1) PolyQ-GFP cDNA sequence (expressing Met-polyQ-GFP, wherein polyQ was Q72 or Q25) was synthesized de novo and subcloned into pcDNA vector. […] And the same method was used to obtain cells expressing Q53-GFP, cells expressing Q46-GFP, and cells expressing Q38-GFP.

[17] = tested on: GFP; test: OI-RD affinity screening with GFP; type: binding; details: OI-RD difference images
Method: (§7) To identify compound(s) that can selectively bind to proteins containing expanded polyglutamine, screening was conducted using a method similar to 1.1, except for that the target protein HTTexon1-Q72-MBP in step (1) of 1.1 was replaced with the polyQ-GFP protein prepared in 10.1, and the target protein HTTexon1-Q25-MBP in step (2) of 1.1 was replaced with GFP.

[18] = tested on: proteins with expanded polyglutamine (polyQ-GFP); test: OI-RD affinity screening with polyQ-GFP proteins; type: binding; details: OI-RD difference images
Method: as §7

[19] = tested on: polyQ-GFP (Q72-GFP, Q25-GFP); test: polyQ-GFP level in HEK293T cells by Incucyte fluorescence counting; type: cell-based; details: Q72-GFP vs Q25-GFP expressing HEK293T cells, 100 nM compound 1, 100 nM compound 3 or 50 nM compound 4, 2 days
Text: (1) PolyQ-GFP cDNA sequence (expressing Met-polyQ-GFP, wherein polyQ was Q72 or Q25) was synthesized de novo and subcloned into pcDNA vector. It was transfected into HEK293T cells (ATCC, CRL-3216) through forward transfection to obtain Q72-GFP expressing cells and Q25-GFP expressing cells, respectively. And the same method was used to obtain cells expressing Q53-GFP, cells expressing Q46-GFP, and cells expressing Q38-GFP.
The Q72-GFP expressing cells and Q25-GFP expressing cells obtained in step (1) of 10.1 were used. […] Then the level of polyQ-GFP was measured by Incucyte fluorescence counting (FIG. 25).

[20] = target: T12, MBP-ATXN3-Q28 (Homo sapiens, UniProt P54252, INS305QQQQQQQQQQQQQQQQQQ); test: OI-RD affinity screening with MBP-ATXN3-Q28; type: binding; details: OI-RD difference images
T12 construct: His8 with TEV protease cleavage site; made in house; host or cells: Escherichia coli Rosetta(DE3)pLsyS
Method: (§8) Screening was conducted using a method similar to 1.1, except for that the target protein HTTexon1-Q72-MBP in step (1) of 1.1 was replaced with MBP-ATXN3-Q68 and the target protein HTTexon1-Q25-MBP in step (2) of 1.1 was replaced with MBP-ATXN3-Q28, to obtain compounds that can selectively bind to ATXN3 with abnormally expanded polyQ (MBP-ATXN3-Q68).

[21] = target: T12, MBP-ATXN3-Q28; test: MST affinity with MBP-ATXN3-Q28; type: binding
Method: Protein concentration was 500 nM.

[22] = in vivo; details: mouse, ip, 0.5 mg/kg
Method: Experimental method: The compound or control DMSO was diluted with 0.9% NaCl intravenous infusion solution to 0.05 μg/μL. One ip-injection (0.5 mg/kg) was conducted per day. After 14 days of injection, tissue extraction or behavioral experiment were conducted.

[23] = tested on: Q25-GFP; test: MST affinity with Q25-GFP
Method: The affinity of the compound with full-length HTT and LC3B was verified with micro thermophoresis (MST) using Monolith NT.115 instrument from NanoTemper Technologies. The reaction buffer was 20 mM HEPES, pH 7.4, 150 mM NaCl.

[24] = tested on: mHTT; test: HTRF mHTT level in HD patient immortalized fibroblasts; details: concentrations below the micromolar level
Method: Homogeneous time-resolved fluorescence (HTRF) analysis: the cell or tissue lysate was diluted with the original lysis buffer PBS+1% (v/v) Triton X-100+1×cOmplete™ protease inhibitor to lyse the sample, then HTRF assay buffer (50 mM NaH2PO4, 400 mM NaF, 0.1% BSA, 0.05% (v/v) Tween-20, 1% (v/v) Triton X-100, pH 7.4) was used to dilute the specified antibody pair for detection.
The immortalized fibroblasts of HD patients were treated using the above-mentioned c-Raf inhibitors and KSP inhibitors respectively at a concentration of 100 nM.

[25] = target: MBP-ATXN3-Q68 (Homo sapiens, UniProt P54252, INS305QQQQQQQQQQQQQQQQQQQQQQQQQQQQQQQQQQQQQQQQQQQQQQQQQQQQQQQQQQ); test: OI-RD affinity screening with MBP-ATXN3-Q68; type: binding; parameters: His8 with TEV protease cleavage site; made in house; host or cells: Escherichia coli Rosetta(DE3)pLsyS; details: OI-RD difference images
Method: as §8

T4 sequence (P42858 with tags, fused parts or gaps with the stated changes): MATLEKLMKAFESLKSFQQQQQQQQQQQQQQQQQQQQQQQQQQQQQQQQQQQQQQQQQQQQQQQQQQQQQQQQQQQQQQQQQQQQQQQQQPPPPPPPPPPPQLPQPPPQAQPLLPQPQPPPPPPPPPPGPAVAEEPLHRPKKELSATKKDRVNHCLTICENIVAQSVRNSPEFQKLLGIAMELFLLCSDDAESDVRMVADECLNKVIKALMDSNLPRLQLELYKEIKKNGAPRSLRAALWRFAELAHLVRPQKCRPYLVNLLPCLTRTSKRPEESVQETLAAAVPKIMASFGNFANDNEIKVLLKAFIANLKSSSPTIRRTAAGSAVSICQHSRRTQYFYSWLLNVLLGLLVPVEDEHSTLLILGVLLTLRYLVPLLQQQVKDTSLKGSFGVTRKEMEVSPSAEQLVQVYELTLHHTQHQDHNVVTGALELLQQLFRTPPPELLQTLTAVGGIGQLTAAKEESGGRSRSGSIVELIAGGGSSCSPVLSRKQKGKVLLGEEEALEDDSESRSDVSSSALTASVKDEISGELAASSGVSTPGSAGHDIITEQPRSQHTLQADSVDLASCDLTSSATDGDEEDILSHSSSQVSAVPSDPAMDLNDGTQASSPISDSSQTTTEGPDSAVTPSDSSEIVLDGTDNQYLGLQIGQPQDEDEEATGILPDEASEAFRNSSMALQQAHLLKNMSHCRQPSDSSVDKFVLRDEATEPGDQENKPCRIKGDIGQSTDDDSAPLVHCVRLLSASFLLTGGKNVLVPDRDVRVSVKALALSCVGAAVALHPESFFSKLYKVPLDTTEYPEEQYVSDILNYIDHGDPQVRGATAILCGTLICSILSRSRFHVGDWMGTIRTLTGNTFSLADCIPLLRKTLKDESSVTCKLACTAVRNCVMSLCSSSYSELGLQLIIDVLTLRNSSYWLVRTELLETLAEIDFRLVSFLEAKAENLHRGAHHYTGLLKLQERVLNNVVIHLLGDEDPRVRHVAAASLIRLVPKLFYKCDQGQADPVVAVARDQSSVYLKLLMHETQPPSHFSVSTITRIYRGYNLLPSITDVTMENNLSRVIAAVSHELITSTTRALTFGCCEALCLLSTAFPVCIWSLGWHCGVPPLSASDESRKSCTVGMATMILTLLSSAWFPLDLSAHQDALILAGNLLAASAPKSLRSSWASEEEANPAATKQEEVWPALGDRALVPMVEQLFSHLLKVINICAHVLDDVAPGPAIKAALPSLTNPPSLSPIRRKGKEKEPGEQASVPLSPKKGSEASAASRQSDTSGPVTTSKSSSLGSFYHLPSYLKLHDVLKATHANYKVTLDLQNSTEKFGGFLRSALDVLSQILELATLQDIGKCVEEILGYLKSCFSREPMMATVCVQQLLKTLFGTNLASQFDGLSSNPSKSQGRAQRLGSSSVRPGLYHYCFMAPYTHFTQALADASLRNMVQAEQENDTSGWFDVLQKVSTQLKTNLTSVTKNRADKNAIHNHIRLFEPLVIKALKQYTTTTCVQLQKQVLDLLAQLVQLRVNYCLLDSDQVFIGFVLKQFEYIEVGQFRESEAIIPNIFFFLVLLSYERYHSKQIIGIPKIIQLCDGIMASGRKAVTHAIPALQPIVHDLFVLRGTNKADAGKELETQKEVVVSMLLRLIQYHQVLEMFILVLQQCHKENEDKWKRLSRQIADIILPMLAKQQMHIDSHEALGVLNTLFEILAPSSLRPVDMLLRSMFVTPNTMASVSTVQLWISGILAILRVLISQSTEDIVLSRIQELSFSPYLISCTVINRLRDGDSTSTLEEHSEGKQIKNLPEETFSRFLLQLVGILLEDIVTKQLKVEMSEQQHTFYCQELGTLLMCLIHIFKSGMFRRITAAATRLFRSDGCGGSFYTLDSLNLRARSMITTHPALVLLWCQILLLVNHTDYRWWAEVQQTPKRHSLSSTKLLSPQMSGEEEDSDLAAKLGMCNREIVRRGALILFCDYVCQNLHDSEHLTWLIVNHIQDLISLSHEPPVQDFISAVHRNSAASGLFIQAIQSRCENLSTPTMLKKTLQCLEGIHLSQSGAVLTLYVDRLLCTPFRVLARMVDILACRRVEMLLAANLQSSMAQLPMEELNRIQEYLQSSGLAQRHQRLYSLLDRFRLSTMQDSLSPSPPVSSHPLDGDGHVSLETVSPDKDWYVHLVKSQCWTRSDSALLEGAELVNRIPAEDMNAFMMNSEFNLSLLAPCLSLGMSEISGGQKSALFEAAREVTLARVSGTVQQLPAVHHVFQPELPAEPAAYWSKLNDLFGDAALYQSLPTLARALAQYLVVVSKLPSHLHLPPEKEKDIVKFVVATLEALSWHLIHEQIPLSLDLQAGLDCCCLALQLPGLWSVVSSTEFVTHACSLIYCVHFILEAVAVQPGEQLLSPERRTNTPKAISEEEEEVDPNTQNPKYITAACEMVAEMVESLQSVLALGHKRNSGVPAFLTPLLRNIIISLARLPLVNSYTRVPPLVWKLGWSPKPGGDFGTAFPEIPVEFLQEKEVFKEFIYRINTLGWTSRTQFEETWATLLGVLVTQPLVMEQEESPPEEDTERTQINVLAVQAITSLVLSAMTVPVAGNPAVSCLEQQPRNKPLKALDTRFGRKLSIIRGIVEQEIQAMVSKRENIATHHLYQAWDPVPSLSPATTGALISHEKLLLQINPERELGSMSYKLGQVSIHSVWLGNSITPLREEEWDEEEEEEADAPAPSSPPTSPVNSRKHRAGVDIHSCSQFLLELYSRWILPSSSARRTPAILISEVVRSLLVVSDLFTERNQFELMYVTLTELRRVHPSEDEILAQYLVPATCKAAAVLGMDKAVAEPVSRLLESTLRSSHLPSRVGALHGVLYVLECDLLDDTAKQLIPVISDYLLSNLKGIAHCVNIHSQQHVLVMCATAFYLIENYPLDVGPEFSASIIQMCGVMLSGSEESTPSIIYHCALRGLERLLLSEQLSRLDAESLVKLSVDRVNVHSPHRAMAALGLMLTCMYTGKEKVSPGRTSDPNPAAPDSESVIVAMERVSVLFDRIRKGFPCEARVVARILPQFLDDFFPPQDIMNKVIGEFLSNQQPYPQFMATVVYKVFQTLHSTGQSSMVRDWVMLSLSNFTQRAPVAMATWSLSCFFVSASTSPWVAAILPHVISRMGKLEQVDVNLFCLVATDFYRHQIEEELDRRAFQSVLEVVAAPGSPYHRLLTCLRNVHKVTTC
T1 sequence (P42858 with tags, fused parts or gaps, stated change not applied): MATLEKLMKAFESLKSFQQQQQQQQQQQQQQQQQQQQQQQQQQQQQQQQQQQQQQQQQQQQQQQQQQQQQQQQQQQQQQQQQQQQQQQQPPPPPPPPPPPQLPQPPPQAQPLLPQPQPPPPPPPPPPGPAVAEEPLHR
T8 sequence (P54252 with tags, fused parts or gaps isoform P54252-1 with the stated changes): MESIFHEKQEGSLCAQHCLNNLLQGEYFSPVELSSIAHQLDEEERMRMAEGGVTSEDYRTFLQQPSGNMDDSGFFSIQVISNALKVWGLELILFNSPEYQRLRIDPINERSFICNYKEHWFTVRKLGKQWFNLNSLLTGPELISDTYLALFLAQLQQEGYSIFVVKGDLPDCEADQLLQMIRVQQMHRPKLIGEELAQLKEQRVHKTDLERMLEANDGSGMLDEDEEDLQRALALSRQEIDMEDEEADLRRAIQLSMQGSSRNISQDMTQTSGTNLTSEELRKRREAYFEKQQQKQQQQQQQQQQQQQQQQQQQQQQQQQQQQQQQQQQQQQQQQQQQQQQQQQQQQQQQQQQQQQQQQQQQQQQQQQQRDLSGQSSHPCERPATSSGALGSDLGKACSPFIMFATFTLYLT
T10 sequence (P54253 with tags, fused parts or gaps with the stated changes): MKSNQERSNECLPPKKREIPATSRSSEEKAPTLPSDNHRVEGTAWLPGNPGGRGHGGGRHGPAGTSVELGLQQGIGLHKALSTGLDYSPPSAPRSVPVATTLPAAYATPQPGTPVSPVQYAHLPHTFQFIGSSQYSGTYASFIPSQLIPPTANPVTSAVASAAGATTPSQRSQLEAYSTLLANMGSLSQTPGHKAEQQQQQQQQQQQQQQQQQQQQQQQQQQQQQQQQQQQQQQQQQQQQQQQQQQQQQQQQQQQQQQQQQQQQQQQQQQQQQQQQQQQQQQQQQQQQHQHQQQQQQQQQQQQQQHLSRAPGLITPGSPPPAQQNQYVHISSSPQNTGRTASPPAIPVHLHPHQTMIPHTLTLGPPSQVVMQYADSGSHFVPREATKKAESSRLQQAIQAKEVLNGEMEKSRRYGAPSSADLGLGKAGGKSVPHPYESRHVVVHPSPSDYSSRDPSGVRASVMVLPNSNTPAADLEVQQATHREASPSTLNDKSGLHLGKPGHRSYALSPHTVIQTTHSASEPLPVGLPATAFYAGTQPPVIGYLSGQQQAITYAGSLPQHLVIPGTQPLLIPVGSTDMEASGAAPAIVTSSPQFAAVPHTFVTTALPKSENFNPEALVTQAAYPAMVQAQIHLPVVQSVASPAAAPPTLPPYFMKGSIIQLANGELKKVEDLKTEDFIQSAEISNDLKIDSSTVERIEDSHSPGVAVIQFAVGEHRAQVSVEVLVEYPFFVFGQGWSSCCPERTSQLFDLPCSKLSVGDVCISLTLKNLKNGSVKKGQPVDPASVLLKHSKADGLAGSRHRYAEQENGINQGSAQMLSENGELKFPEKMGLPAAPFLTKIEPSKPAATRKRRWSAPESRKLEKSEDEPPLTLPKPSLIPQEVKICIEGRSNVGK
T11 sequence (P54253 with tags, fused parts or gaps with the stated changes): as above
T12 sequence (P54252 with tags, fused parts or gaps isoform P54252-4 with the stated changes): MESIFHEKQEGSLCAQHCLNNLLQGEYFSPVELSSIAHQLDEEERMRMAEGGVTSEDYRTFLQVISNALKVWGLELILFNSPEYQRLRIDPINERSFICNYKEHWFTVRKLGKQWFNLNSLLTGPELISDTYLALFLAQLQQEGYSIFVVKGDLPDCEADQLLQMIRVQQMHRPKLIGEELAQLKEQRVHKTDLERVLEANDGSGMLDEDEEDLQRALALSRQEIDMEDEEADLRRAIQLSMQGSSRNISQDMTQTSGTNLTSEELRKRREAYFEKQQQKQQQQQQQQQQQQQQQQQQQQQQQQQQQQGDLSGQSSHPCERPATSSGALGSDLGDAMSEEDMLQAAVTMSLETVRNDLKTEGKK
T5 sequence (P42858 with tags, fused parts or gaps with the stated changes): as the sequence (P42858 with tags, fused parts or gaps with the stated changes) above

## Cc1ccc(C(=O)N(CCCN)[C@@H](c2nc3cc(Cl)ccc3c(=O)n2Cc2ccccc2)C(C)C)cc1 [compound 2, ispinesib]
[1]
  Kd: 29.2 nM
[1]; OI-RD difference images
  binding to HTTexon1-Q72: can bind
[1]; OI-RD, HTTexon1-Q72
  Koff: 0.000104 s⁻¹
  Kon: 0.000213 min/nM
[2]
  binding to HTTexon1-Q25: do not bind
[3]
  Kd: 238 nM
[3]; OI-RD difference images
  binding to LC3B: can bind
[3]; OI-RD, LC3B
  Koff: 9.77e-05 s⁻¹
  Kon: 2.46e-05 min/nM
[4]
  Kd: 322 nM
[4]; OI-RD, flHTT-Q73
  Koff: 0.000345 s⁻¹
  Kon: 6.43e-05 min/nM
[5]
  Kd: 130 nM
[6]
  Kd: 3100 nM
[7]
  concentration range in which the effect of selectively reducing mHTT levels was observed: 30 to 100 nM
  preferred concentration for selectively reducing mHTT levels: 100 nM
[8]
  wtHTT levels: did not reduce wtHTT levels
[9]; 2B7/MW1
  mHTT levels: Decreased mHTT levels were observed
[9]; presence of the autophagy inhibitor NH4Cl
  mHTT levels: this effect was not observed
[10]
  mutant ATXN3 protein level: A decrease in mutant ATXN3 protein level was observed
[11]
  wild-type ATXN3 protein level: no decrease in wild-type ATXN3 protein level was observed
[12]
  binding to His-ATXN1-Q92: can bind
[13]
  level of mutant ATXN1 protein (His-ATXN1-Q92): Decreased levels of mutant ATXN1 were observed

## O=c1cc(-c2ccccc2)c2c(O)cc(O)cc2o1 [compound 4]
[14]
  mHTT level in cortices: significantly reduced mHTT level
[15]
  level of SQSTM1/p62 in the cortices: did not change
[16]
  binding to Q25-GFP: did not bind
[17]
  binding to GFP: did not bind
[18]
  binding affinity to proteins with 38 or more glutamine repeats: showed certain binding affinity
[19]
  level of proteins containing expanded polyglutamine in cells (polyQ-GFP): can selectively reduce the level
[20]
  binding to MBP-ATXN3-Q28: did not bind
[21]
  binding affinity with normal ATXN3 protein (MBP-ATXN3-Q28): no binding affinity
[10]
  mutant ATXN3 protein level: A decrease in mutant ATXN3 protein level was observed
[11]
  wild-type ATXN3 protein level: no decrease in wild-type ATXN3 protein level was observed
[12]
  binding to His-ATXN1-Q92: can bind
[13]
  level of mutant ATXN1 protein (His-ATXN1-Q92): Decreased levels of mutant ATXN1 were observed
[22]
  concentration at 2 h: 9.48 ng/g
[23]
  binding affinity to Q25-GFP: no binding affinity
[24]
  mHTT levels, comparison of FIG. 9: reduces mHTT levels
[25]
  binding to MBP-ATXN3-Q68: binded
